What is called melting point is the temperature, or range, at which the solid turns liquid.

Series [1] has as its system pancreatic Langerhans' islet of rats. Put plainly: Insulin secretion promoting action in pancreatic Langerhans' islet of rats. The class given is cell-based, rat. The conditions noted are these: test compound 100 μmol/L, 7.5 mmol/L glucose, 1 hr incubation; insulin secretion amount relative to control group, amended by DNA amount. As for the experimental part:
Insulin Secretion Promoting Action in Pancreatic Langerhans' Islet of Rats
The pancreas of 8-week-old male SD rat was treated with collagenase and the isolated Langerhans' islet was preincubated for 1 hr in a medium (KRB) containing 2.8 mmol/L glucose in a 24 well incubation plate, which was followed by incubation for 1 hr in KRB containing the test compound (100 μmol/L, see Table 2) and 7.5 mmol/L glucose (control group was free of test compound). The medium was recovered and the amount of the secreted insulin was measured using a radioimmunoassay kit (trademark: SHIONORIA insulin kit (manufactured by Shionogi & Co., Ltd.)). The Langerhans' islet was lysed by ultrasonication and the DNA amount was measured, based on which the insulin level in the medium was amended. The insulin secretion amount of the test compound group is expressed in a value (%) relative to the control group and shown in Table 2.

The test system of a further series is Male SD rats. Briefly: Hypoglycemic action in rats (oral glucose tolerance test). The class given is in vivo. The conditions noted are these: Rattus norvegicus, 0.5 h, male SD rats fasted overnight, glucose load 2 g/kg 60 min later, blood drawn 30 min after starting glucose loading, read-out: glucose level (% of control); for response vs control in vivo at 30 mg/kg: 30 mg/kg body weight oral; for response vs control in vivo at 50 mg/kg: 50 mg/kg body weight oral. As for the experimental part: Hypoglycemic Action in Rats
Male SD rats (7 weeks of age, 5 per group) were fasted overnight and blood was drawn from the tail vein to measure the glucose level before administration of the test compound. Then the test compound (30 mg/kg body weight/10 mL (compounds of Examples 8, 16, 66, 68, 79, 94, 123) or 50 mg/kg body weight/10 mL (compounds of Examples 58, 70)) suspended in 0.5% methyl cellulose was orally administered to the rats using a gastric tube. Oral glucose tolerance test (2 g/kg body weight/10 mL) was started 60 min later. Blood was drawn at 30 min after starting the glucose loading, and glucose level was measured. The glucose level was measured using an automatic analyzer (HITACHI 7070).

`O=C(O)CCc1cnoc1-c1ccc(Cl)s1` [Example 64, 3-[5-(5-chloro-2-thienyl)-4-isoxazolyl]propionic acid] returned a melting point of 138 to 139 °C. Moreover, in series [1], the “insulin secretion promoting action (%)” value turned out to be 273%. Consider `O=C(O)CCc1cnoc1-c1ccc(F)c(F)c1` [Example 77, 3-[5-(3,4-difluorophenyl)-4-isoxazolyl]propionic acid], for which the melting point is 102 to 103 °C. Further, in series [1], the “insulin secretion promoting action (%)” value was 201%. Turning to `OCCCc1cnoc1-c1ccc(Cl)c(Cl)c1` [Example 68, 3-[5-(3,4-dichlorophenyl)-4-isoxazolyl]propan-1-ol], the response vs control in vivo at 30 mg/kg with Male SD rats is 75%. Turning to `OCCCc1cnoc1-c1ccc(F)c(Cl)c1` [Example 94, 3-[5-(3-chloro-4-fluorophenyl)-4-isoxazolyl]propan-1-ol], the response vs control in vivo at 30 mg/kg in the series on Male SD rats came out at 81%. For `O=C(O)CCc1cnoc1-c1ccc(Cl)c(Cl)c1` [Example 70, 3-[5-(3,4-dichlorophenyl)-4-isoxazolyl]propionic acid], the melting point fell in the range of 171 to 172 °C. Moreover, the response vs control in vivo at 50 mg/kg in the series on Male SD rats is 88%. The “insulin secretion promoting action (%)” value in series [1] stood at 235%. As to `OCCCc1cnoc1-c1ccc(Cl)s1` [Example 66, 3-[5-(5-chloro-2-thienyl)-4-isoxazolyl]propan-1-ol], the response vs control in vivo at 30 mg/kg in the series with Male SD rats was determined as 80%. Turning to `OCCCc1cnoc1-c1ccc(F)cc1` [Example 58, 3-[5-(4-fluorophenyl)-4-isoxazolyl]propan-1-ol], the response vs control in vivo at 50 mg/kg with Male SD rats amounted to 85%. On to `OCCCc1cnoc1-c1ccc(F)c(F)c1` [Example 79, 3-[5-(3,4-difluorophenyl)-4-isoxazolyl]propan-1-ol], for which the response vs control in vivo at 30 mg/kg with Male SD rats stood at 77%.

Molecule `O=C(O)CCc1cnoc1-c1cc(Cl)c(Cl)s1` [Example 123, 3-[5-(4,5-dichloro-2-thienyl)-4-isoxazolyl]propionic acid] yielded a melting point of 142 to 143 °C. Further, the response vs control in vivo at 30 mg/kg with Male SD rats worked out at 86%. Take `O=C(O)CCc1cnoc1-c1ccc(F)c(Cl)c1` [Example 92, 3-[5-(3-chloro-4-fluorophenyl)-4-isoxazolyl]propionic acid]: the melting point is 118 to 119 °C. Also, in series [1], the “insulin secretion promoting action (%)” value is 156%.

In the case of `OCCCc1cnoc1-c1ccc(Cl)cc1` [Example 16, 3-[5-(4-chlorophenyl)-4-isoxazolyl]propan-1-ol], in the series on Male SD rats, the response vs control in vivo at 30 mg/kg was found to be 88%. In the case of `O=C(O)CCc1cnoc1-c1ccc(Cl)cc1` [Example 8, 3-[5-(4-chlorophenyl)-4-isoxazolyl]propionic acid], the response vs control in vivo at 30 mg/kg with Male SD rats is 85%. The “insulin secretion promoting action (%)” value in series [1] is listed as 256%. For `O=C(O)CCc1cnoc1-c1ccc(Cl)c(Br)c1` [Example 6, 3-[5-(3-bromo-4-chlorophenyl)-4-isoxazolyl]propionic acid], the melting point lay in the range of 177 to 180 °C.

Turning to `Cc1noc(-c2ccccc2)c1/C=C/C(=O)O` [Example 136, (E)-3-(3-methyl-5-phenyl-4-isoxazolyl)propenoic acid], the melting point is 173 to 174 °C.

Values taken from patent publication US7022725B2, “Isoxazole derivatives” (Takeda Pharmaceutical Company Limited, priority 2000, dated 2006).
